Source: PubChem BioAssay AID2060497 (Molecular Pharmacology Branch, DTP, NCI, 2025)

Test system: 317291-083-R-J1-PDC complex spheroids, viability
Experiment: Anticancer human tumor 317291-083-R-J1-PDC patient-derived soft tissue sarcoma cell line growth inhibition [GQUAD]
Conditions: for IC50: curve of first compound; for viability, T/C: stronger effect = lower value
In short: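 Tumor cells were grown as complex spheroids with HUVEC endothelial cells and mesenchymal stem cells as stroma. G-quadruplex stabilizers were combined with targeted agents over half-log dilutions from near the clinical Cmax, or from 10 microM.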

[1] = second compound 0.0316 µM, first compound 0.0316 µM
[2] = second compound 0.0316 µM, first compound 0.1 µM
[3] = second compound 0.0316 µM, first compound 0.316 µM
[4] = second compound 0.0316 µM, first compound 1 µM
[5] = second compound 0.0316 µM, first compound 3.16 µM
[6] = second compound 0.0316 µM, first compound 10 µM
[7] = second compound 0.1 µM, first compound 0.0316 µM
[8] = second compound 0.1 µM, first compound 0.1 µM
[9] = second compound 0.1 µM, first compound 0.316 µM
[10] = second compound 0.1 µM, first compound 1 µM
[11] = second compound 0.1 µM, first compound 3.16 µM
[12] = second compound 0.1 µM, first compound 10 µM
[13] = second compound 0.316 µM, first compound 0.0316 µM
[14] = second compound 0.316 µM, first compound 0.1 µM
[15] = second compound 0.316 µM, first compound 0.316 µM
[16] = second compound 0.316 µM, first compound 1 µM
[17] = second compound 0.316 µM, first compound 3.16 µM
[18] = second compound 0.316 µM, first compound 10 µM
[19] = second compound 1 µM, first compound 0.0316 µM
[20] = second compound 1 µM, first compound 0.1 µM
[21] = second compound 1 µM, first compound 0.316 µM
[22] = second compound 1 µM, first compound 1 µM
[23] = second compound 1 µM, first compound 3.16 µM
[24] = second compound 1 µM, first compound 10 µM
[25] = second compound 3.16 µM, first compound 0.0316 µM
[26] = second compound 3.16 µM, first compound 0.1 µM
[27] = second compound 3.16 µM, first compound 0.316 µM
[28] = second compound 3.16 µM, first compound 1 µM
[29] = second compound 3.16 µM, first compound 3.16 µM
[30] = second compound 3.16 µM, first compound 10 µM
[31] = second compound 10 µM, first compound 0.0316 µM
[32] = second compound 10 µM, first compound 0.1 µM
[33] = second compound 10 µM, first compound 0.316 µM
[34] = second compound 10 µM, first compound 1 µM
[35] = second compound 10 µM, first compound 3.16 µM
[36] = second compound 10 µM, first compound 10 µM
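Further: spheroids exposed to compounds for one week before readout.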
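Wherever viability, T/C is given: percent viability relative to DMSO vehicle wells taken as 100%.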

`C=CCn1c(=O)c2cnc(Nc3ccc(N4CCN(C)CC4)cc3)nc2n1-c1cccc(C(C)(C)O)n1` + CN(C)c1ccc(Nc2c3ccc(NC(=O)CCN4CCCC4)cc3nc3cc(NC(=O)CCN4CCCC4)ccc23)cc1 was tested, and the IC50 (second compound 0.0316 µM) was 0.147 µM, the IC50 (second compound 0.1 µM) was 0.11 µM and the IC50 (second compound 0.316 µM) was 0.0346 µM. For the same compound, the IC50 (second compound 1 µM) was < 0.0316 µM, the IC50 (second compound 3.16 µM) was < 0.0316 µM and the IC50 (second compound 10 µM) was < 0.0316 µM. It also gave a viability, T/C [1] of 87.1%, a viability, T/C [2] of 64.3% and a viability, T/C [3] of 21.7%. The viability, T/C [4] was 14.2%, the viability, T/C [5] was 8.78% and the viability, T/C [6] was 8.84%. It also gave a viability, T/C [7] of 82.5%, a viability, T/C [8] of 52% and a viability, T/C [9] of 25.7%. The viability, T/C [10] was 12.4%, the viability, T/C [11] was 9.4% and the viability, T/C [12] was 8.71%. The viability, T/C [13] was 51.3%, the viability, T/C [14] was 34.4% and the viability, T/C [15] was 14.4%. For the same compound, the viability, T/C [16] was 7.47%, the viability, T/C [17] was 7.01% and the viability, T/C [18] was 5.2%. For the same compound, the viability, T/C [19] was 31.1%, the viability, T/C [20] was 14.4% and the viability, T/C [21] was 8.51%. It also gave a viability, T/C [22] of 2.77%, a viability, T/C [23] of 1.74% and a viability, T/C [24] of 1.3%. It also gave a viability, T/C [25] of 2.02%, a viability, T/C [26] of 1.03% and a viability, T/C [27] of 0.41%. It also gave a viability, T/C [28] of 3.62%, a viability, T/C [29] of 0.31% and a viability, T/C [30] of 0.14%. The viability, T/C [31] was 0.27%, the viability, T/C [32] was 0.13% and the viability, T/C [33] was 0.18%. The viability, T/C [34] was 0.15%, the viability, T/C [35] was 0.21% and the viability, T/C [36] was 0.15%.

Compound `O=C(NO)c1cnc(N2CCN(S(=O)(=O)c3ccc4ccccc4c3)CC2)nc1` + Cc1[nH]c2ccc(F)cc2c1-c1nc2c3cccnc3c3ncccc3c2[nH]1 has an IC50 (second compound 0.0316 µM) of 0.153 µM, an IC50 (second compound 0.1 µM) of 0.211 µM and an IC50 (second compound 0.316 µM) of 0.113 µM. The IC50 (second compound 1 µM) was 0.0602 µM, the IC50 (second compound 3.16 µM) was < 0.0316 µM and the IC50 (second compound 10 µM) was < 0.0316 µM. For the same compound, the viability, T/C [1] was 99.5%, the viability, T/C [2] was 71.4% and the viability, T/C [3] was 13.9%. For the same compound, the viability, T/C [4] was 0.16%, the viability, T/C [5] was 0.07% and the viability, T/C [6] was 0.9%. For the same compound, the viability, T/C [7] was 117%, the viability, T/C [8] was 102% and the viability, T/C [9] was 22.1%. For the same compound, the viability, T/C [10] was 0.09%, the viability, T/C [11] was 0.03% and the viability, T/C [12] was 0.45%. The viability, T/C [13] was 66.5%, the viability, T/C [14] was 55.2% and the viability, T/C [15] was 6.53%. For the same compound, the viability, T/C [16] was 0.09%, the viability, T/C [17] was 0.04% and the viability, T/C [18] was 0.16%. The viability, T/C [19] was 60.6%, the viability, T/C [20] was 41.6% and the viability, T/C [21] was 10.5%. For the same compound, the viability, T/C [22] was 0.06%, the viability, T/C [23] was 0.09% and the viability, T/C [24] was 0.07%. For the same compound, the viability, T/C [25] was 42.7%, the viability, T/C [26] was 19.4% and the viability, T/C [27] was 3.52%. It also gave a viability, T/C [28] of 0.44%, a viability, T/C [29] of 0.18% and a viability, T/C [30] of 0.72%. The viability, T/C [31] was 42.9%, the viability, T/C [32] was 35.3% and the viability, T/C [33] was 4.65%. It also gave a viability, T/C [34] of 0.13%, a viability, T/C [35] of 0.22% and a viability, T/C [36] of 0.17%.

For `CC(=O)O[C@H]1C(=O)[C@@]2(C)[C@H]([C@H](OC(=O)c3ccccc3)[C@]3(O)C[C@H](OC(=O)[C@H](O)[C@@H](NC(=O)c4ccccc4)c4ccccc4)C(C)=C1C3(C)C)[C@]1(OC(C)=O)CO[C@@H]1C[C@@H]2O` + Cc1[nH]c2ccc(F)cc2c1-c1nc2c3cccnc3c3ncccc3c2[nH]1, the IC50 (second compound 0.0316 µM) was < 0.0316 µM, the IC50 (second compound 0.1 µM) was < 0.0316 µM and the IC50 (second compound 0.316 µM) was < 0.0316 µM. For the same compound, the IC50 (second compound 1 µM) was < 0.0316 µM, the IC50 (second compound 3.16 µM) was < 0.0316 µM and the IC50 (second compound 10 µM) was < 0.0316 µM. It also gave a viability, T/C [1] of 45.6%, a viability, T/C [2] of 19.7% and a viability, T/C [3] of 15.5%. The viability, T/C [4] was 16.5%, the viability, T/C [5] was 13.9% and the viability, T/C [6] was 12.1%. For the same compound, the viability, T/C [7] was 46.6%, the viability, T/C [8] was 21.5% and the viability, T/C [9] was 12.2%. The viability, T/C [10] was 17.6%, the viability, T/C [11] was 15.1% and the viability, T/C [12] was 16.6%. It also gave a viability, T/C [13] of 40%, a viability, T/C [14] of 18.9% and a viability, T/C [15] of 16.8%. It also gave a viability, T/C [16] of 15.3%, a viability, T/C [17] of 13.7% and a viability, T/C [18] of 16.1%. For the same compound, the viability, T/C [19] was 32.9%, the viability, T/C [20] was 18% and the viability, T/C [21] was 17.2%. It also gave a viability, T/C [22] of 17.7%, a viability, T/C [23] of 16.1% and a viability, T/C [24] of 12.7%. The viability, T/C [25] was 20.1%, the viability, T/C [26] was 11% and the viability, T/C [27] was 12.4%. The viability, T/C [28] was 11.6%, the viability, T/C [29] was 10.7% and the viability, T/C [30] was 8.8%. The viability, T/C [31] was 27%, the viability, T/C [32] was 17.1% and the viability, T/C [33] was 15.2%. For the same compound, the viability, T/C [34] was 14.7%, the viability, T/C [35] was 12.7% and the viability, T/C [36] was 12.5%.

For `CC1COCCN1c1cc(-c2ccnn2C)c2ccnc(-c3ccn[nH]3)c2n1` (stereo not drawn) + Cc1[nH]c2ccc(F)cc2c1-c1nc2c3cccnc3c3ncccc3c2[nH]1, the IC50 (second compound 0.0316 µM) was 0.0888 µM, the IC50 (second compound 0.1 µM) was 0.0751 µM and the IC50 (second compound 0.316 µM) was 0.0644 µM. For the same compound, the IC50 (second compound 1 µM) was 0.0625 µM, the IC50 (second compound 3.16 µM) was 0.0654 µM and the IC50 (second compound 10 µM) was 0.0709 µM. For the same compound, the viability, T/C [1] was 87.9%, the viability, T/C [2] was 45.6% and the viability, T/C [3] was 16.4%. For the same compound, the viability, T/C [4] was 11.7%, the viability, T/C [5] was 13% and the viability, T/C [6] was 15.1%. The viability, T/C [7] was 89.4%, the viability, T/C [8] was 36.9% and the viability, T/C [9] was 14.7%. The viability, T/C [10] was 13.8%, the viability, T/C [11] was 13.6% and the viability, T/C [12] was 11.5%. For the same compound, the viability, T/C [13] was 77.7%, the viability, T/C [14] was 33% and the viability, T/C [15] was 13.8%. For the same compound, the viability, T/C [16] was 14.1%, the viability, T/C [17] was 11.5% and the viability, T/C [18] was 14.4%. The viability, T/C [19] was 76.1%, the viability, T/C [20] was 31.9% and the viability, T/C [21] was 18%. It also gave a viability, T/C [22] of 14.8%, a viability, T/C [23] of 15.3% and a viability, T/C [24] of 10.1%. The viability, T/C [25] was 60.7%, the viability, T/C [26] was 43.7% and the viability, T/C [27] was 13.3%. It also gave a viability, T/C [28] of 9.76%, a viability, T/C [29] of 9.63% and a viability, T/C [30] of 14.1%. It also gave a viability, T/C [31] of 89%, a viability, T/C [32] of 33.4% and a viability, T/C [33] of 13.8%. The viability, T/C [34] was 8.91%, the viability, T/C [35] was 10% and the viability, T/C [36] was 12.1%.
